Legend:
[1] = target: T1, hRIPK1 (aa 1-375) fusion protein (Homo sapiens, UniProt Q13546); assay: ADP-Glo kinase assay: catalytic activity of RIPK1 (autophosphorylation, conversion of ATP to ADP); type: biochemical
T1 construct: hRIPK1 (aa 1-375) fusion protein
T1 sequence (Q13546 1-375): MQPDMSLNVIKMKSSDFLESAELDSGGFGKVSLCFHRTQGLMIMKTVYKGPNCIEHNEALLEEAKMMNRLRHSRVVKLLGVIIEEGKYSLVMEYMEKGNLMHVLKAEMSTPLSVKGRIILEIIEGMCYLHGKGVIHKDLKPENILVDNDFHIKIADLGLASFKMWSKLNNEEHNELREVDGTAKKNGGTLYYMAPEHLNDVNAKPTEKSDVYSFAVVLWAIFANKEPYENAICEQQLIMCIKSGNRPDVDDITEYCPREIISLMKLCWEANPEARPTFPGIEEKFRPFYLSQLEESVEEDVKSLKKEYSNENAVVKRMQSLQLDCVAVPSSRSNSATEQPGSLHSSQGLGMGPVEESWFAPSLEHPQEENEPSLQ
Procedure, shortened: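 hRIPK1 (aa 1-375) fusion protein (3.6 μg/ml final) was preincubated 30 min at rt with compound (33300-1.69 nM, 1% DMSO), then 50 μM ATP was added for 240 min at rt. ADP from autophosphorylation was measured by ADP-Glo luminescence and curves fitted by nonlinear regression.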

U937 cells = assay: Cellular assay in U937 cells: activity of RIPK1 inhibitors on TNFα/zVAD.fmk-induced cell death (necroptosis), CellTiter 96 AQueous (MTS) readout; type: cell-based; conditions: Homo sapiens, U-937
Procedure, shortened: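 Necroptosis was measured by viable-cell MTS reduction (4 h, absorbance 490 nm) after overnight (18–24 h) 37° C culture. Cell suspensions of U937 cells carried TNFα (100 ng/ml) plus zVAD.fmk (50 μM) before compound was added. A 10-point curve (10 μM–0.26 nM or 1 μM–0.07 nM) was run in duplicate, normalised to the control lacking TNFα/zVAD.fmk.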

| Compound | IC50 [1] | IC50 (U937 cells) |
| --- | --- | --- |
| Cc1ncc(C[C@H]2CC[C@H](C(=O)N3OCC[C@H]3c3cnc(C)c(F)c3)CC2)cn1 [compound 343, trans-[(3S)-3-(5-fluoro-6-methylpyridin-3-yl)-1,2-oxazolidin-2-yl]-[4-[(2-methylpyrimidin-5-yl)methyl]cyclohexyl]methanone] | 43 nM | 21 nM |
| Cc1ccc([C@@H]2CCON2C(=O)[C@H]2CC[C@H](Cc3cnc(C)nc3)CC2)cn1 [compound 344, trans-[(3S)-3-(6-methylpyridin-3-yl)-1,2-oxazolidin-2-yl]-[4-[(2-methylpyrimidin-5-yl)methyl]cyclohexyl]methanone] | 243 nM | 173 nM |
| COc1cc(C[C@H]2CC[C@H](C(=O)N3OCC[C@H]3c3cncc(F)c3)CC2)cn2nc(C)nc12 [compound 345, trans-[(3S)-3-(5-fluoropyridin-3-yl)-1,2-oxazolidin-2-yl]-[4-[(8-methoxy-2-methyl-[1,2,4]triazolo[1,5-a]pyridin-6-yl)methyl]cyclohexyl]methanone] | 26 nM | 8 nM |
| Cc1ncc(C[C@H]2CC[C@H](C(=O)N3OCC[C@H]3c3cnccn3)CC2)cn1 [compound 346, trans-[4-[(2-methylpyrimidin-5-yl)methyl]cyclohexyl]-[(3S)-3-pyrazin-2-yl-1,2-oxazolidin-2-yl]methanone] | 83 nM | 70 nM |
| Cc1ccc([C@@H]2CCON2C(=O)[C@H]2CC[C@H](Cc3cc(C)c4ncnn4c3)CC2)cn1 [compound 347, trans-[(3S)-3-(6-methylpyridin-3-yl)-1,2-oxazolidin-2-yl]-[4-[(8-methyl-[1,2,4]triazolo[1,5-a]pyridin-6-yl)methyl]cyclohexyl]methanone] | 46 nM | 59 nM |
| Cc1ccc([C@@H]2CCON2C(=O)[C@H]2CC[C@H](Cc3ccc(C4(O)COC4)cc3)CC2)cn1 [compound 348, trans-5 [4-[[4-(3-hydroxyoxetan-3-yl)phenyl]methyl]cyclohexyl]-[(3S)-3-(6-methylpyridin-3-yl)-1,2-oxazolidin-2-yl]methanone] | 37 nM | 105 nM |
| Cc1cn2ncc(C[C@H]3CC[C@H](C(=O)N4OCC[C@H]4c4cnccn4)CC3)cc2n1 [compound 349, trams-[4-[(2-methylimidazo[1,2-b]pyridazin-7-yl)methyl]cyclohexyl]-[(3S)-3-pyrazin-2-yl-1,2-oxazolidin-2-yl]methanone] | 42 nM | 108 nM |
| Cc1cn2cc(C[C@H]3CC[C@H](C(=O)N4OCC[C@H]4c4cnccn4)CC3)cc(F)c2n1 [compound 350, trans-[4-(8-Fluoro-2-methyl-imidazo[1,2-a]pyridin-6-ylmethyl)-cyclohexyl]-((S)-3-pyrazin-2-yl-isoxazolidin-2-yl)-methanone] | 63 nM | 34 nM |
| Cc1ccc([C@@H]2CCON2C(=O)[C@H]2CC[C@H](Cc3cc(F)c4nc(C)cn4c3)CC2)cn1 [compound 351, trans-[4-[(8-fluoro-2-methylimidazo[1,2-a]pyridin-6-yl)methyl]cyclohexyl]-[(3S)-3-(6-methylpyridin-3-yl)-1,2-oxazolidin-2-yl]methanone] | 210 nM | 149 nM |
| O=C([C@H]1CC[C@H](Cc2ccc(C3(O)COC3)cc2)CC1)N1OCC[C@H]1c1cnccn1 [compound 352, trans-[4-[[4-(3-hydroxyoxetan-3-yl)phenyl]methyl]cyclohexyl]-[(3S)-3-pyrazin-2-yl-1,2-oxazolidin-2-yl]methanone] | 30 nM | 58 nM |
| Cc1ccc([C@@H]2CCON2C(=O)[C@H]2CC[C@H](Cc3cnn4cc(C)nc4c3)CC2)cn1 [compound 353, trans-[4-[(2-methylimidazo[1,2-b]pyridazin-7-yl)methyl]cyclohexyl]-[(3S)-3-(6-methylpyridin-3-yl)-1,2-oxazolidin-2-yl]methanone] | 87 nM | 112 nM |
| Cc1ccc([C@@H]2CCON2C(=O)[C@H]2CC[C@H](Cc3cc(C)ncc3C)CC2)cn1 [compound 354, trans-[4-(2,5-Dimethyl-pyridin-4-ylmethyl)-cyclohexyl]-[(S)-3-(6-methyl-pyridin-3-yl)-isoxazolidin-2-yl]-methanone] | 33 nM | 27 nM |
| Cc1ccc(C[C@H]2CC[C@H](C(=O)N3OCC[C@H]3c3cnccn3)CC2)nn1 [compound 357, trans-[4-[(6-methylpyridazin-3-yl)methyl]cyclohexyl]-[(3S)-3-pyrazin-2-ylisoxazolidin-2-yl]methanone] | 138 nM | 531 nM |
| Cc1nnc2ccc(CC3CCC(C(=O)N4OCC[C@H]4c4cnccn4)CC3)c(C)n12 (stereo partly drawn) [compound 358, [4-[(3,5-dimethyl-[1,2,4]triazolo[4,3-a]pyridin-6-yl)methyl]cyclohexyl]-[(3S)-3-pyrazin-2-yl-1,2-oxazolidin-2-yl]methanone] | 31 nM | 481 nM |
| Cc1nnc2c(F)cc(C[C@H]3CC[C@H](C(=O)N4OCC[C@H]4c4cnccn4)CC3)cn12 [compound 359, trans-[4-[(8-fluoro-3-methyl-[1,2,4]triazolo[4,3-a]pyridin-6-yl)methyl]cyclohexyl]-[(3S)-3-pyrazin-2-yl-1,2-oxazolidin-2-yl]methanone] | 104 nM | 451 nM |
| Cc1nc(C[C@H]2CC[C@H](C(=O)N3OCCC3c3cnc(C)c(F)c3)CC2)cs1 (stereo partly shown) [compound 360] | 20 nM | 7 nM |
| Cc1nc2c(C)cc(C[C@H]3CC[C@H](C(=O)N4OCC[C@H]4c4csc(C)n4)CC3)cn2n1 [compound 361, trans-[4-(2,8-Dimethyl-[1,2,4]triazolo[1,5-a]352yridine-6-ylmethyl)-cyclohexyl]-[(S)-3-(2-methyl-thiazol-4-yl)-isoxazolidin-2-yl]-methanone] | 57 nM | 35 nM |
| Cc1nc([C@@H]2CCON2C(=O)[C@H]2CC[C@H](Cc3cc(C)c4ncnn4c3)CC2)cs1 [compound 362, trans-[(S)-3-(2-Methyl-thiazol-4-yl)-isoxazolidin-2-yl]-[4-(8-methyl-[1,2,4]triazolo[1,5-a]pyridin-6-ylmethyl)-cyclohexyl]-methanone] | 59 nM | 52 nM |
| Cc1nc([C@@H]2CCON2C(=O)[C@H]2CC[C@H](Cc3cc(F)c4nnc(C)n4c3)CC2)cs1 [compound 363, trans-[4-(8-Fluoro-3-methyl-[1,2,4]triazolo[4,3-a]pyridin-6-ylmethyl)-cyclohexyl]-[(S)-3-(2-methyl-thiazol-4-yl)-isoxazolidin-2-yl]-methanone] | 180 nM | 222 nM |
| Cc1ccc([C@@H]2CCON2C(=O)[C@H]2CC[C@H](Cc3cc(F)c4nnc(C)n4c3)CC2)cn1 [compound 364, trans-[4-(8-Fluoro-3-methyl-[1,2,4]triazolo[4,3-a]pyridin-6-ylmethyl)-cyclohexyl]-[(S)-3-(6-methyl-pyridin-3-yl)-isoxazolidin-2-yl]-methanone] | 234 nM | 491 nM |
| Cc1ccc([C@@H]2CCON2C(=O)[C@H]2CC[C@H](Cc3cc(C)c4nnc(C)n4c3)CC2)cn1 [compound 365, trans-[4-(3,8-Dimethyl-[1,2,4]triazolo[4,3-a]pyridin-6-ylmethyl)-cyclohexyl]-[(S)-3-(6-methyl-pyridin-3-yl)-isoxazolidin-2-yl]-methanone] | 97 nM | 71 nM |
| Cc1cc(C[C@H]2CC[C@H](C(=O)N3OCC[C@H]3c3csc(C)n3)CC2)c(C)cn1 [compound 366, trans-[4-(2,5-Dimethyl-pyridin-4-ylmethyl)-cyclohexyl]-[(S)-3-(2-methyl-thiazol-4-yl)-isoxazolidin-2-yl]-methanone] | 40 nM | 11 nM |
| COc1cc(C[C@H]2CC[C@H](C(=O)N3OCC[C@H]3c3ccc(C)nc3)CC2)cn2nc(C)nc12 [compound 368, trans-[4-(8-Methoxy-2-methyl-[1,2,4]triazolo[1,5-a]pyridin-6-ylmethyl)-cyclohexyl]-[(S)-3-(6-methyl-pyridin-3-yl)-isoxazolidin-2-yl]-methanone] | 95 nM | 123 nM |
| Cc1nc([C@@H]2CCON2C(=O)[C@H]2CC[C@H](Cc3ccc(C4(O)COC4)cc3)CC2)cs1 [compound 369, trans-{4-[4-(3-Hydroxy-oxetan-3-yl)-benzyl]-cyclohexyl}-[(S)-3-(2-methyl-thiazol-4-yl)-isoxazolidin-2-yl]-methanone] | 26 nM | 24 nM |
| Cc1cn2cc(C[C@H]3CC[C@H](C(=O)N4OCC[C@H]4c4csc(C)n4)CC3)cc(F)c2n1 [compound 370, trans-[4-(8-Fluoro-2-methyl-imidazo[1,2-a]pyridin-6-ylmethyl)-cyclohexyl]-[(S)-3-(2-methyl-thiazol-4-yl)-isoxazolidin-2-yl]-methanone] | 34 nM | 21 nM |
| Cc1cn2ncc(C[C@H]3CC[C@H](C(=O)N4OCC[C@H]4c4csc(C)n4)CC3)cc2n1 [compound 371, trans-[4-(2-Methyl-imidazo[1,2-b]pyridazin-7-ylmethyl)-cyclohexyl]-[(S)-3-(2-methyl-thiazol-4-yl)-isoxazolidin-2-yl]-methanone] | 65 nM | 147 nM |

From patent US20260158009A1 (GENZYME CORPORATION, priority 2023, published 2026)
